The record followed here is patent US11944661B2, “Pharmaceutical composition containing extract of leaves of Vaccinium bracteatum Thunb. for prevention or treatment of stress disease and depression” (JEONNAM BIOINDUSTRY FOUNDATION, priority 2017, dated 2024).

Series [1] deals with male ICR mice subjected to chronic restraint stress (CRS). In words: Open field test (OFT) in chronic restraint stress (CRS) mice. Format: in vivo. The settings on record: three weeks of CRS; 5 minutes; positive control. Here is the method: Male ICR mice were purchased and subjected to chronic restraint stress (CRS). In this regard, a constant restraint stress was given by immobilizing the mice for 6 hours per day (a.m. 11 to p.m.5) in an acrylic box 20 cm in height and 7 cm in diameter for three weeks. The hot-water extracts of Vaccinium bracteatum Thunb. leaves were orally administered at each dose to the mice daily 30 min before the stress was given at the same time. For the control, the same volume of saline was administered. As a comparative group, escitalopram oxalate, which is an antidepressant, was orally administered. Animal behavior tests were performed the next day after 3 weeks of restraint stress stimulation. The open field test (OFT) was followed by the forced swimming test (FST). After the FST evaluation, whole blood was collected from the mice which were then autopsied to excise the hippocampus and prefrontal cortex. These brain tissues were immediately stored at −70° C. until use in experiments. The open field test (OFT) is an experimental test used to assay locomotor activity levels of animals to determine the anti-anxiety and anti-depressive effects of drugs. An OFT box is an arena having the dimensions of 60 cm diameter×20 cm height with the bottom surface divided into 25 cells. […] In the OFT box, the number of cells which the animal voluntarily crossed for 5 minutes was counted. […]

Series [2] shares this test system. In words: Forced swimming test (FST) in chronic restraint stress (CRS) mice. The format is in vivo. Particulars: three weeks of CRS; 10 mg/kg p.o. Here is the method:
In a forced swimming test (FST), which is a pre-swim test on the day before the main test (post-swim), tap water of around 25° C. was poured into a cylindrical water tank (about 20 cm in diameter, 40 cm in height) to the height of 15 cm from the bottom, after which the mice were put thereinto and forced to swim for 15 minutes. Then, the mice were withdrawn from the water, wiped with a dry towel, and returned to the breeding box. After 1 or 6 days of drug administration, the main test (post-swim) was performed and video was taken with forced swimming for 6 minutes with the mice in the cylinder. In the recorded images for the five minutes exclusive of the first one minute, the animal behavior was classified into three types for analysis: the animals were floating in the water, showing a slight movement, with only a part of the upper body including the face exposed on the water face (immobility behavior); the animals were swimming around the cylinder in the horizontal direction while splashing the water with their forepaws and rear paws (swimming behavior); and the animals were making the fierce movement of pulling the paws out of the water, scrapping the wall (climbing behavior). Times for the three movements were measured. Male ICR mice were purchased and subjected to chronic restraint stress (CRS). In this regard, a constant restraint stress was given by immobilizing the mice for 6 hours per day (a.m. 11 to p.m.5) in an acrylic box 20 cm in height and 7 cm in diameter for three weeks. The hot-water extracts of Vaccinium bracteatum Thunb. leaves were orally administered at each dose to the mice daily 30 min before the stress was given at the same time. For the control, the same volume of saline was administered. As a comparative group, escitalopram oxalate, which is an antidepressant, was orally administered. Animal behavior tests were performed the next day after 3 weeks of restraint stress stimulation. The open field test (OFT) was followed by the forced swimming test (FST). […]

For series [3], the system named is corticosterone. In words: Serum stress hormone corticosterone level (ELISA) in normal mice after six days of administration. The format is in vivo. The settings on record: comparative group, dose not given. Here is the method:
After six days of drug administration to mice in a normal state, effects on the level of the stress hormone corticosterone in sera of the mice were measured using the Abnova ELISA kit according to the manufacturer's instruction.

Series [4] deals with male ICR mice. In words: Forced swimming test (FST) in normal mice after 1 or 6 days of oral administration. Format: in vivo. Particulars: comparative group, dose not given. Here is the method:
For use in assaying an antidepressant effect of the Vaccinium bracteatum Thunb. leaf extracts, male ICR mice, 6 weeks of age, were purchased from […], Korea. The animals were acclimated to a certain condition in an animal breeding room (temperature: 22±2° C., humidity: 50±5%, contrast: 12-hour light/12-hour dark cycle) for one week before use. Male ICR mice were orally administered the Vaccinium bracteatum Thunb. leaf extract the present invention while escitalopram oxalate was used as an antidepressant for a comparative group. Oral administration was conducted for 1 or 6 days according to the experiment. In a forced swimming test (FST), which is a pre-swim test on the day before the main test (post-swim), tap water of around 25° C. was poured into a cylindrical water tank (about 20 cm in diameter, 40 cm in height) to the height of 15 cm from the bottom, after which the mice were put thereinto and forced to swim for 15 minutes. Then, the mice were withdrawn from the water, wiped with a dry towel, and returned to the breeding box. After 1 or 6 days of drug administration, the main test (post-swim) was performed and video was taken with forced swimming for 6 minutes with the mice in the cylinder. In the recorded images for the five minutes exclusive of the first one minute, the animal behavior was classified into three types for analysis: the animals were floating in the water, showing a slight movement, with only a part of the upper body including the face exposed on the water face (immobility behavior); the animals were swimming around the cylinder in the horizontal direction while splashing the water with their forepaws and rear paws (swimming behavior); and the animals were making the fierce movement of pulling the paws out of the water, scrapping the wall (climbing behavior). Times for the three movements were measured.

For series [5], the system named is SH-SY5Y cells. In words: Cytotoxicity of the pharmacological inhibitors alone, 24-hour incubation. Here is the method: An experiment was carried out to find out the working signaling pathway responsible for the neuroprotective activity of the Vaccinium bracteatum Thunb. leaf extracts against corticosterone-induced neuronal damage. In this experiment, SH-SY5Y cells were pretreated for 1 hour with wortmanin, rapamycin, H89, and PD98059, which are respective pharmacological inhibitors of the PI3K (phosphoinositide 3-kinase), mTOR, PKA (protein kinase A), and MAPK/ERK kinase pathways and then incubated for 2 hours with the hot-water extracts of Vaccinium bracteatum Thunb. leaves (3 μg/ml). Thereafter, 24 hours of incubation with corticosterone (1 mM) was followed by measuring cell viability through MTT assay.
For use in the experiment, the inhibitors alone were assayed for cytotoxicity.

Where a name gives a salt, the structure may show the parent alone. Read-outs that look alike come from different tables or passages of the source.

Regarding `CN(C)CCC[C@@]1(c2ccc(F)cc2)OCc2cc(C#N)ccc21` [escitalopram oxalate], in series [1], the “number of crossing (locomotor activity)” value amounted to 182.73±5.60 crossings. In series [2], this compound gave a climbing time of 105.23 ± 15.37 s, an immobility time of 154.74 ± 14.80 s and a swimming time of 146.58 ± 14.84 s. This compound also gave a stress hormone corticosterone in sera in series [3] of 765 ± 97.5 ng/mL. In series [4] (one-day administration), the climbing time was found to be 12.43 ± 3.47 s and the immobility time was 194.65 ± 11.55 s. In series [4] (six-day administration), this compound displayed an immobility time of 169.65 ± 7.15 s and a swimming time of 128.16 ± 6.65 s.
In the case of `COC[C@H]1OC(=O)c2coc3c2[C@@]1(C)C1=C(C3=O)[C@@H]2CCC(=O)[C@@]2(C)C[C@H]1OC(C)=O` [wortmanin], the “cytotoxicity of inhibitor alone” value in series [5] (24-hour incubation, inhibitor alone) was “except for the PI3K inhibitor (wortmanin)”.
Regarding `O=S(=O)(NCCNC/C=C/c1ccc(Br)cc1)c1cccc2cnccc12` [H89], the “cytotoxicity of inhibitor alone” value in series [5] is on record as “No cytotoxicity”.
On the same count and under the same terms, the entry for `CO[C@H]1C[C@@H]2CC[C@@H](C)[C@@](O)(O2)C(=O)C(=O)N2CCCC[C@H]2C(=O)O[C@H]([C@H](C)C[C@@H]2CC[C@@H](O)[C@H](OC)C2)CC(=O)[C@H](C)/C=C(\C)[C@@H](O)[C@@H](OC)C(=O)[C@H](C)C[C@H](C)/C=C/C=C/C=C/1C` [rapamycin] is “No cytotoxicity”; for `COc1cccc(-c2cc(=O)c3ccccc3o2)c1N` [PD98059] it is “No cytotoxicity”.
